Results on 13 molecules are retold here after patent US11760762B2, “Thienopyranones and furanopyranones as kinase, bromodomain, and checkpoint inhibitors” (SignalRx Pharmaceuticals, Inc., priority 2017, dated 2023).

Structures can show the parent of a compound that is named as a salt.

Experiment [1] deals with T1, PI3K-delta (Homo sapiens, UniProt O00329).
T1 construct: Thermo Fisher Scientific-Biosciences Life Sciences Solutions, Madison, WI (contract assay service)
As to the kind of experiment: PI3K inhibition (Thermo Fisher Scientific). Type of experiment: biochemical. Conditions: 10-point curve, grouped by potency; read-out: IC50 P13K δ. Here is the method:
(§1) PI3K-alpha, PI3K-beta, PI3K-gamma, and PI3K-delta inhibition activity was determined by Thermo Fisher Scientific-Biosciences Life Sciences Solutions, Madison, WI The bromodomain protein inhibition (binding domain 1 and 2 of BRD4) was determined by Reaction Biology Corp., Malvern, PA The cyclin dependent kinase inhibition on proteins such as CDK2, CDK4, CDK6, and CDK9 was determined by Reaction Biology Corp., Malvern, PA.
(§2) The compounds of the invention were characterized by their ability to inhibit the target proteins using third party vendors offering such services. PI3K-alpha, PI3K-gamma, and PI3K-delta inhibition activity was determined by Thermo Fisher Scientific-Biosciences Life Sciences Solutions, Madison, WI. […] NI=no inhibition detected up to 50 μM or IC50 not reached at 50 μM. ND=not done.

Experiment [2] concerns the target T2, PI3K-gamma (Homo sapiens, UniProt P48736).
T2 construct: Thermo Fisher Scientific-Biosciences Life Sciences Solutions, Madison, WI (contract assay service)
As to the kind of experiment: PI3K inhibition (Thermo Fisher Scientific). Type of experiment: biochemical. Particulars: 10-point curve, grouped by potency; read-out: IC50 P13K γ. Here is the method:
as §1, §2

In experiment [3] the target is T3, CDK6 (Homo sapiens, UniProt Q00534).
T3 construct: Reaction Biology Corp., Malvern, PA (contract assay service)
Put plainly: Cyclin dependent kinase inhibition (Reaction Biology Corp.). Type of experiment: biochemical. Conditions: 10-point curve, grouped by potency. The protocol: as §1, §2

The target in experiment [4] is T4, CDK4 (Homo sapiens, UniProt P11802).
T4 construct: Reaction Biology Corp., Malvern, PA (contract assay service)
The description is as above. Conditions: 10-point curve, grouped by potency. Type of experiment: biochemical. The protocol: as §1, §2

Experiment [5] deals with T5, PI3K-alpha (Homo sapiens, UniProt P42336).
T5 construct: Thermo Fisher Scientific-Biosciences Life Sciences Solutions, Madison, WI (contract assay service)
Put plainly: PI3K inhibition (Thermo Fisher Scientific). Type of experiment: biochemical. Conditions: 10-point curve, grouped by potency; read-out: IC50 P13K α.
Procedure: PI3K-alpha, PI3K-gamma, and PI3K-delta inhibition activity was determined by Thermo Fisher Scientific-Biosciences Life Sciences Solutions, Madison, WI. The bromodomain protein inhibition (binding domain 1 and 2 of BRD4 was determined by Reaction Biology Corp., Malvern, PA The cyclin dependent kinase inhibition on CDK4 and CDK6 was determined by Reaction Biology Corp., Malvern, PA Additional information on each of the above testing procedures and services is available at each company's website on the internet. The IC50 data presented below in Table 11 is calculated from a 10-point curve and is expressed in nanomolar concentration (nM) and grouped according to potency. Where multiple values have been obtained the range from lowest to highest values is presented. NI=no inhibition detected up to 50 μM or IC50 not reached at 50 μM. ND=not done.

The target of experiment [6] is T6, BRD4 binding domain 1 (Homo sapiens, UniProt O60885).
T6 construct: Reaction Biology Corp., Malvern, PA (contract assay service)
Put plainly: Bromodomain protein inhibition (Reaction Biology Corp.). Particulars: 10-point curve, grouped by potency; for IC50: read-out: IC50 BRD4-1. Here is the method: as §1
(§3) The compounds of the invention were characterized by their ability to inhibit the target proteins using third party vendors offering such services. PI3K-alpha, PI3K-gamma, and PI3K-delta inhibition activity was determined by Thermo Fisher Scientific-Biosciences Life Sciences Solutions, Madison, WI. […] ND=not done.

Experiment [7] deals with T7, BRD4 binding domain 2 (Homo sapiens, UniProt O60885).
T7 construct: Reaction Biology Corp., Malvern, PA (contract assay service)
The experiment is described as above. Particulars: 10-point curve, grouped by potency; read-out: IC50 BRD4-2. The protocol: as §1, §3

In experiment [8] the test system is Huh7 2H cell line. Put plainly: Huh7 2H cell viability. Type of experiment: cell-based. Conditions: for IC50: Homo sapiens, Huh-7, 2 h. The protocol:
(§4) Cells were seeded into 96-well plate at 1×10^4 cell per well in complete medium+10% FCS and incubated for 24 hours prior to the addition of compounds at concentrations ranging from 50 μM to 50 nM. Cell viability was quantitated 24 hours after the addition of compounds using AlamarBlue® viable cell detection reagent. IC50 curves were determined using Graphpad Prism software.
The procedures of example 6 were followed except using the Huh7 2H cell line.

For experiment [9], the system named is Jeko-1. Put plainly: Mantle cell lymphoma cell viability, AlamarBlue. Type of experiment: cell-based. Particulars: Homo sapiens, JeKo-1; 48 hours; read-out: Mantle Cell Line IC50 Values Jeko-1. The protocol:
(§5) Mantle cell lymphoma cell lines Granta, Mino and Jeko-1 were seeded at a density of 2500 cells/0.1 mL per well in a 96-well plate. Compounds 1 or Palbociclib were added post-plating at 50 μM-50 nM concentrations for 48 hours followed by addition of AlamarBlue® and incubation of plates at 37° C. in 5% CO2 for 6 hours. Fluorescence signals were read as emission at 590 nm after excitation at 560 nm. IC50 for each cell line was determined using Graphpad Prism software module.

The subject of experiment [10] is Mino. As to the kind of experiment: Mantle cell lymphoma cell viability, AlamarBlue. Conditions: Homo sapiens, MINO; 48 hours; read-out: Mantle Cell Line IC50 Values Mino. Type of experiment: cell-based. Here is the method:
as §5

In experiment [11] the test system is Granta. Put plainly: Mantle cell lymphoma cell viability, AlamarBlue. Type of experiment: cell-based. Particulars: 48 hours; read-out: Mantle Cell Line IC50 Values Granta. Here is the method:
as §5
(In general: The colour change of resazurin is a common sign of viable cells or microbes.)

In experiment [12] the test system is HepG2. Put plainly: Hepatocellular carcinoma cell viability, AlamarBlue. Conditions: Homo sapiens, 24 hours, read-out: Hepatocarcinoma Cell Line IC50 Values HepG2. Type of experiment: cell-based. The protocol: as §4
For experiment [13], the system named is Hep3B. The description is as above. Type of experiment: cell-based. Conditions: Homo sapiens, 24 hours, read-out: Hepatocarcinoma Cell Line IC50 Values Hep3B. The protocol:
as §4

For experiment [14], the system named is Huh7. Described as above. Type of experiment: cell-based. Particulars: Homo sapiens, Huh-7; 24 hours; read-out: Hepatocarcinoma Cell Line IC50 Values Huh7. Here is the method: as §4
Experiment [15] relates to PI3 kinases. Particulars: C. J. Vlahos et al., J. Biol. Chem. 1994; cited from earlier work.

T2 sequence (P48736 whole entry): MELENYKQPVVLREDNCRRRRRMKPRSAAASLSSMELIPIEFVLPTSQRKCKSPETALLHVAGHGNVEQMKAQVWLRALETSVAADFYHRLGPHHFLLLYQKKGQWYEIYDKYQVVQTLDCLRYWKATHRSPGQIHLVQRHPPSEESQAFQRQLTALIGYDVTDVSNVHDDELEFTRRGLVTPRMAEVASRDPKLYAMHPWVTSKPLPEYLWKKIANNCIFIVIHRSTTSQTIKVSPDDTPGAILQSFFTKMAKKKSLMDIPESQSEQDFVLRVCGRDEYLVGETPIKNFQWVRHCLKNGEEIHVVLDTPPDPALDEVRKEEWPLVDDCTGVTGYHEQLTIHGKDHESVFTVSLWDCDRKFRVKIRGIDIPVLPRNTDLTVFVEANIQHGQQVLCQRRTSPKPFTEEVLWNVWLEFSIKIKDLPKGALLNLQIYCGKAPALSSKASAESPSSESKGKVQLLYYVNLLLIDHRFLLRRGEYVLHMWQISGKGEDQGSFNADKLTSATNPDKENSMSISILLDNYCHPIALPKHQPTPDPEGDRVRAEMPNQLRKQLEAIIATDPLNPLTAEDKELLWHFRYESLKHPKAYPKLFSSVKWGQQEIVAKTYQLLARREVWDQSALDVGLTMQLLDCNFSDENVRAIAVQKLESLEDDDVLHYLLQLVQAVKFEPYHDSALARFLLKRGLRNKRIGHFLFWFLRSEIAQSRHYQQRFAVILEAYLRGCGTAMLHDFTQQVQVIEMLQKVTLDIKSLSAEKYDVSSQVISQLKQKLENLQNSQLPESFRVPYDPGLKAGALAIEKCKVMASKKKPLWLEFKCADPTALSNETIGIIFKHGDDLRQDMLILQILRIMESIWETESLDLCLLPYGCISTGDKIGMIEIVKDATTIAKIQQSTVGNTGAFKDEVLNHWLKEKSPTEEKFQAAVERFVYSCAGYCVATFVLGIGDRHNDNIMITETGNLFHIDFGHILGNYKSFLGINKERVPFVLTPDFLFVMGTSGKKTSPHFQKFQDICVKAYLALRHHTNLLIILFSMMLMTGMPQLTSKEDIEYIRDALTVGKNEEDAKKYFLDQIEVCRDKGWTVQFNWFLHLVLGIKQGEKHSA
T1 sequence (O00329 whole entry): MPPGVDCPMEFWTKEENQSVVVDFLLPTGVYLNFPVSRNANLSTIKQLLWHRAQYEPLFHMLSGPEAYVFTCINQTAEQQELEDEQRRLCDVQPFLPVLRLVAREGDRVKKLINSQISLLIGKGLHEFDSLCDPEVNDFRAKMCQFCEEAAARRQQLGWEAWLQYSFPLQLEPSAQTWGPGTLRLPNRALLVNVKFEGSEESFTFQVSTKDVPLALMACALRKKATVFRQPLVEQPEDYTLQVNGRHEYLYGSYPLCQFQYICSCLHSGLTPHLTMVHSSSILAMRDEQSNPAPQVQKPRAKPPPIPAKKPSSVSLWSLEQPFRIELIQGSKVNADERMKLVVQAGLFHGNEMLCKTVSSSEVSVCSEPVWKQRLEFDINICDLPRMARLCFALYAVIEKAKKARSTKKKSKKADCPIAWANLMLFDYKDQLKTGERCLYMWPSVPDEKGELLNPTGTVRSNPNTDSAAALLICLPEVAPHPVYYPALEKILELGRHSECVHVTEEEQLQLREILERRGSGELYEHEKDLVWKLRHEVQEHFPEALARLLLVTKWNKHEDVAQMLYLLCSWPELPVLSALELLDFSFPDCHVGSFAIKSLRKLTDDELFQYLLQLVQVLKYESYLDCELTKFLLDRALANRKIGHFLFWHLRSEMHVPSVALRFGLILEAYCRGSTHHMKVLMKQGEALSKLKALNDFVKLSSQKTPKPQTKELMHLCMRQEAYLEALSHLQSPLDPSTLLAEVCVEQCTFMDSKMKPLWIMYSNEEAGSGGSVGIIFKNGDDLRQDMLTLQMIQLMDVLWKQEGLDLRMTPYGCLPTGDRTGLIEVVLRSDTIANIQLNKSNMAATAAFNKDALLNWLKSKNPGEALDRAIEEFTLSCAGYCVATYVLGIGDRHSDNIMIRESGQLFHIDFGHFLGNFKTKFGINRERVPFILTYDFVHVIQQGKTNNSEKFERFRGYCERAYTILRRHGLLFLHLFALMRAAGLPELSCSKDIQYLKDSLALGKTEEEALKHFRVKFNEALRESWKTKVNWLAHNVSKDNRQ
T1 sequence (P27986 whole entry partner): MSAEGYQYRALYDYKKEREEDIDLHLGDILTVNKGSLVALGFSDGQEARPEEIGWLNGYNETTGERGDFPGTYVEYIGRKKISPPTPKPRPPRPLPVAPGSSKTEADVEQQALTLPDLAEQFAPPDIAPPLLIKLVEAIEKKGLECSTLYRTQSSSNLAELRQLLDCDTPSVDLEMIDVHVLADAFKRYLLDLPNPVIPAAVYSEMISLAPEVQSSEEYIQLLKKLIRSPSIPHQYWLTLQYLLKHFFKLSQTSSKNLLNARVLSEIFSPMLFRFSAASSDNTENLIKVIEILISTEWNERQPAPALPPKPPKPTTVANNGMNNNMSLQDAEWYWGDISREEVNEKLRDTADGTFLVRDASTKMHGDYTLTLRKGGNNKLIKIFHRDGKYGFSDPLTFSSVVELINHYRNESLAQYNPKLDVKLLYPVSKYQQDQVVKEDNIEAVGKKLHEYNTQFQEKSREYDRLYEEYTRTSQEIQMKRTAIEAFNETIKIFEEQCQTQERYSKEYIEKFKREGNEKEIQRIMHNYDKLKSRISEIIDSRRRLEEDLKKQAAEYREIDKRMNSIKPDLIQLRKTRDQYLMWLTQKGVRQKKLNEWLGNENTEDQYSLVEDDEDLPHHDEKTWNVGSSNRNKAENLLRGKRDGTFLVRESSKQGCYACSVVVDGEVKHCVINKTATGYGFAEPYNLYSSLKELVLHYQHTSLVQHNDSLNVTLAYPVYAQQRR
T5 sequence (P42336 whole entry): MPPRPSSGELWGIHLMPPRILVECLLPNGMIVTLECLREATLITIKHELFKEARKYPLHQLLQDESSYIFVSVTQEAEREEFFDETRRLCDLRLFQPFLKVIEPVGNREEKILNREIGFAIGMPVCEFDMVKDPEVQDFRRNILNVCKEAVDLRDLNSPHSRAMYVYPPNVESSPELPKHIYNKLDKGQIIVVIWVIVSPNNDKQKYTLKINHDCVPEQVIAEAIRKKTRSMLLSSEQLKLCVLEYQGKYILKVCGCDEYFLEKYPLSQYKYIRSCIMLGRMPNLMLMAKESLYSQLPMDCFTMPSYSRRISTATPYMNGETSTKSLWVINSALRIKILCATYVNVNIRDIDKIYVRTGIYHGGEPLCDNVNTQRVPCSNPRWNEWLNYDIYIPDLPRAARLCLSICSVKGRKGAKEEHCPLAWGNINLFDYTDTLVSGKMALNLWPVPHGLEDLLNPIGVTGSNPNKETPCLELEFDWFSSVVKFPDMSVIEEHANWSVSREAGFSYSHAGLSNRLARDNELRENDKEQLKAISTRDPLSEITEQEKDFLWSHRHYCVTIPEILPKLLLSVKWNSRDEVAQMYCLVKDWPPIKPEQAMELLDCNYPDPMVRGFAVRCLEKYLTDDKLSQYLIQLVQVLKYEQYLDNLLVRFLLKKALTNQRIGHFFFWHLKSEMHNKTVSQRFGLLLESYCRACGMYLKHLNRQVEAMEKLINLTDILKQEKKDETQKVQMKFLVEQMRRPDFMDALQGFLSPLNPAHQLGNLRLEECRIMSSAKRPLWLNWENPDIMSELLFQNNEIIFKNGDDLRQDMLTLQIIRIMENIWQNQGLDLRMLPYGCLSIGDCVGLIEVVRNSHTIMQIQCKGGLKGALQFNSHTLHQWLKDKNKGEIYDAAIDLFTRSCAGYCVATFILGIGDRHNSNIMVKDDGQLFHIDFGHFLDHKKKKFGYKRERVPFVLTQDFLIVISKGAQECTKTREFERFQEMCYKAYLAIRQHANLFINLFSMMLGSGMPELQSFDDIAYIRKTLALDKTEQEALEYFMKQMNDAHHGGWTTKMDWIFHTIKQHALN
T5 sequence (P27986 whole entry partner): as the sequence (P27986 whole entry partner) above
T3 sequence (Q00534 whole entry): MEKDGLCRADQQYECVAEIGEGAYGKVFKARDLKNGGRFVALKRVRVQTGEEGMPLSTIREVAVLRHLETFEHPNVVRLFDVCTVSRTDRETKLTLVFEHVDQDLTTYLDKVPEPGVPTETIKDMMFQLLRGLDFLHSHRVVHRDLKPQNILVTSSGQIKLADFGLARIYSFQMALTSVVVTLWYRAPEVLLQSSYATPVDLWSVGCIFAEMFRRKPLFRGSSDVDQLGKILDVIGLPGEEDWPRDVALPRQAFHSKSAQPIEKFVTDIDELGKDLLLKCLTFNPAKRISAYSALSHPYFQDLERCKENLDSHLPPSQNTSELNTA
T3 sequence (P24385 whole entry partner): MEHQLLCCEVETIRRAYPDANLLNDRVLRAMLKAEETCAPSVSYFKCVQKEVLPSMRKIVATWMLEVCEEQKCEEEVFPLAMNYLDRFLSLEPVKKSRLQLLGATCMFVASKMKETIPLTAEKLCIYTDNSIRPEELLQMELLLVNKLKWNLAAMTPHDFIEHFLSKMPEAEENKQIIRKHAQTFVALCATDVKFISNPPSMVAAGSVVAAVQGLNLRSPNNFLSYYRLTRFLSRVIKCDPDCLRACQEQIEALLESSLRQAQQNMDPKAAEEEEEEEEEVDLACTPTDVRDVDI
T4 sequence (P11802 whole entry): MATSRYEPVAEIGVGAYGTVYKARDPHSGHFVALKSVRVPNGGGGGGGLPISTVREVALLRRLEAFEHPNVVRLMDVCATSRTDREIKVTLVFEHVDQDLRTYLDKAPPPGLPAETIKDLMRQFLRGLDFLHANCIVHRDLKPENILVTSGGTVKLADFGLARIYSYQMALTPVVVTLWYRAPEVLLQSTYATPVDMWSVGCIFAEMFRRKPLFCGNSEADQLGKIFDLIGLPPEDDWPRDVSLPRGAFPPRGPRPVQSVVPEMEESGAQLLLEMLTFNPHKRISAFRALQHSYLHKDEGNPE
T4 sequence (P24385 whole entry partner): as the sequence (P24385 whole entry partner) above

Take `CN(C)C(=O)c1cc2cnc(Nc3ccc(-c4csc5c(=O)cc(N6CCNCC6)oc45)cc3)nc2n1C1CCCC1` [compound 2, (1-Cyclopentyl-6-{p-[7-oxo-5-(1-piperazinyl)-4-oxa-1-thia-3-indenyl]phenylamino}-1,5,7-triaza-1H-inden-2-yl)(dimethylamino)formaldehyde hydrochloride]: the IC50 (usually the concentration at which inhibition is half-maximal) in [1] was 5000 to 50000 nM; in experiment [2], 5000 to 50000 nM; in experiment [3], less than 100 nM; in [4], less than 100 nM; in experiment [5] it was 5000 to 50000 nM; in experiment [6], 100 to 1000 nM. Moreover, the IC50 in [7] fell in the range of 100 to 1000 nM.
`CC(=O)c1c(C)c2cnc(Nc3ccc(N4CCNCC4)cn3)nc2n(C2CCCC2)c1=O` [Palbociclib, reference compound]: the IC50 in experiment [8] was 9200 nM; in experiment [9] it was 7430 nM; in [10], 47900 nM; in [11] it was 10200 nM. Besides, the “times less potent than Compound 1, Huh7 2H” value in [8] (ratio of IC50 values) is recorded as “about 18 times”.
As for `COC(=O)c1cc(-c2csc3c(=O)cc(N4CCOCC4)oc23)ccc1Nc1ncc2cc(C(=O)N(C)C)n(C3CCCC3)c2n1` [Compound 4, Methyl 2-[1-cyclopentyl-2-(dimethylamino)carbonyl-1,5,7-triaza-1H-inden-6-ylamino]-5-(5-morpholino-7-oxo-4-oxa-1-thia-3-indenyl)benzoate], the half-maximal inhibitory concentration (IC50) in experiment [1] was 100 to 1000 nM; in experiment [2], 1000 to 5000 nM; in experiment [3] it was greater than 50000 nM; in [4], greater than 50000 nM; in experiment [5], 100 to 1000 nM; in [6] it was 100 to 1000 nM. Moreover, in experiment [7], the IC50 lay within 1000 to 5000 nM.
Regarding `O=c1cc(N2CCOCC2)oc2c(-c3ccc4c(c3)OCCO4)csc12` [Compound 0, reference compound], the IC50 in experiment [12] is 5000 nM; in [13] it was 6600 nM; in [14], 14300 nM; in experiment [8], 2970 to 5900 nM.
Take `CN(C)C(=O)c1cc2cnc(Nc3ccc(-c4csc5c(=O)cc(N6CCOCC6)oc45)cn3)nc2n1C1CCCC1` [Compound 3, {1-Cyclopentyl-6-[5-(5-morpholino-7-oxo-4-oxa-1-thia-3-indenyl)-2-pyridylamino]-1,5,7-triaza-1H-inden-2-yl}(dimethylamino)formaldehyde]: the concentration for half-maximal inhibition (IC50) was less than 100 nM in experiment [1]; 100 to 1000 nM in experiment [2]; less than 100 nM in [3]; less than 100 nM in experiment [4]; 100 to 1000 nM in [5]; 100 to 1000 nM in experiment [7]. Moreover, the “IC50 BRD4-1” value in [6] is “* to **”.
`CN(C)C(=O)c1cc2cnc(Nc3ccc(-c4csc5c(=O)cc(N6CCOCC6)oc45)c(C(=O)O)c3)nc2n1C1CCCC1` [Compound 10, 5-[1-Cyclopentyl-2-(dimethylamino)carbonyl-1,5,7-triaza-1H-inden-6-ylamino]-2-(5-morpholino-7-oxo-4-oxa-1-thia-3-indenyl)benzoic acid]: the half-maximal inhibitory concentration (IC50) in experiment [1] is 100 to 1000 nM; in [2] it was 100 to 1000 nM; in [3], 5000 to 50000 nM; in [4], 5000 to 50000 nM; in [5], less than 100 nM; in experiment [6] it was less than 100 nM. In addition, the half-inhibitory concentration (IC50) in experiment [7] lay within 100 to 1000 nM.
Regarding `Cc1nc2c(F)cc(-c3nc(Nc4ccc(-c5csc6c(=O)cc(N7CCOCC7)oc56)cc4)ncc3F)cc2n1C(C)C` [Compound 5, 3-{p-[5-Fluoro-4-(7-fluoro-3-isopropyl-2-methyl-1,3-diaza-3H-inden-5-yl)-2-pyrimidinylamino]phenyl}-5-morpholino-4-oxa-1-thia-7-indenone], the half-maximal inhibitory concentration (IC50) in [1] was 1000 to 5000 nM; in [2] it was greater than 50000 nM; in [3], less than 100 nM; in experiment [4] it was less than 100 nM; in experiment [5], 5000 to 50000 nM; in experiment [6] it was greater than 50000 nM. For the same molecule, the concentration for half-maximal inhibition (IC50) in experiment [7] is greater than 50000 nM.
Consider `CN(C)C(=O)c1cc2cnc(Nc3ccc(-c4csc5c(=S)cc(N6CCOCC6)oc45)cc3)nc2n1C1CCCC1` [Compound 11, {1-Cyclopentyl-6-[p-(5-morpholino-7-thioxo-4-oxa-1-thia-3-indenyl)phenylamino]-1,5,7-triaza-1H-inden-2-yl}(dimethylamino)formaldehyde], for which the IC50 in [1] was 100 to 1000 nM; in experiment [2], 5000 to 50000 nM; in experiment [3], less than 100 nM; in experiment [4], less than 100 nM; in [5], 100 to 1000 nM; in [6] it was 1000 to 5000 nM. For the same molecule, in [7], the IC50 is 1000 to 5000 nM.
Regarding `CN(C)C(=S)c1cc2cnc(Nc3ccc(-c4csc5c(=S)cc(N6CCOCC6)oc45)cc3)nc2n1C1CCCC1` [Compound 12, 7-Cyclopentyl-N,N-dimethyl-2-((4-(5-morpholino-7-thioxo-7H-thieno[3,2-b]pyran-3-yl)phenyl)amino)-7H-pyrrolo[2,3-d]pyrimidine-6-carbothioamide], the IC50 was 100 to 1000 nM in experiment [1]; 5000 to 50000 nM in experiment [2]; 100 to 1000 nM in [3]; 100 to 1000 nM in [4]; 100 to 1000 nM in experiment [5]; 5000 to 50000 nM in [6]. In addition, the IC50 in experiment [7] lay in the range of 5000 to 50000 nM.
As to `COC(=O)c1cc(Nc2ncc3cc(C(=O)N(C)C)n(C4CCCC4)c3n2)ccc1-c1csc2c(=O)cc(N3CCOCC3)oc12` [Compound 7, Methyl 5-[1-cyclopentyl-2-(dimethylamino)carbonyl-1,5,7-triaza-1H-inden-6-ylamino]-2-(5-morpholino-7-oxo-4-oxa-1-thia-3-indenyl)benzoate], the half-maximal inhibitory concentration (IC50) in experiment [1] is less than 100 nM; in [2], 1000 to 5000 nM; in experiment [3], less than 100 nM; in experiment [4], less than 100 nM; in experiment [5], 100 to 1000 nM; in experiment [6], 100 to 1000 nM. Further, the half-maximal inhibitory concentration (IC50) in experiment [7] lay in the range of 100 to 1000 nM.
Regarding `CC(=O)c1c(C)c2cnc(Nc3ccc(-c4csc5c(=O)cc(N6CCOCC6)oc45)cc3)nc2n(C2CCCC2)c1=O` [Compound 6, 1-{8-cyclopentyl-5-methyl-2-[p-(5-morpholino-7-oxo-4-oxa-1-thia-3-indenyl)phenylamino]-7-oxo-1,3,8-triaza-8H-naphth-6-yl}-1-ethanone], the 50% inhibitory concentration (IC50) is less than 100 nM in [1]; 1000 to 5000 nM in [2]; less than 100 nM in experiment [3]; less than 100 nM in [4]; less than 100 nM in [5]; 100 to 1000 nM in experiment [6]. Besides, in experiment [7], the IC50 was 100 to 1000 nM.
On to `O=c1cc(N2CCOCC2)oc2c(-c3ccccc3)cccc12` [LY294002, 2-(4-morpholinyl)-8-phenyl-4H-1-benzopyran-4-one], for which, in experiment [15], the IC50 was 1400 nM.
Take `CN(C)C(=O)c1cc2cnc(Nc3ccc(-c4csc5c(=O)cc(N6CCN(C(=O)OC(C)(C)C)CC6)oc45)cc3)nc2n1C1CCCC1` [Compound 18]: the half-inhibitory concentration (IC50) in experiment [1] is 100 to 1000 nM; in experiment [2], 1000 to 5000 nM; in experiment [3], less than 100 nM; in experiment [4], less than 100 nM; in experiment [5], 5000 to 50000 nM; in experiment [6], 100 to 1000 nM. Also, the half-maximal inhibitory concentration (IC50) in [7] was in the range of 1000 to 5000 nM.
